Source: ChEMBL document CHEMBL1201861, “Genomics of Drug Sensitity in Cancer screening data, Wellcome Trust Sanger Institute”

Experiments:
Type in all cases: functional, cell-based
Calu-1 = assay: SANGER: Inhibition of human Calu-1 cell growth in a cell viability assay.
Caov-3 cell line = assay: cells; conditions: Homo sapiens;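 note: cell growth inhibition read out by a viability assay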
Description: SANGER: Inhibition of human Caov-3 cell growth in a cell viability assay.

DMS-53 = assay: cells; conditions: Homo sapiens;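 note: cell viability assay measuring growth inhibition of human DMS-53 cells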
Description: SANGER: Inhibition of human DMS-53 cell growth in a cell viability assay.

EFE-184 = assay: cells; conditions: Homo sapiens
Description: SANGER: Inhibition of human EFE-184 cell growth in a cell viability assay.

EW-7 = assay: SANGER: Inhibition of human EW-7 cell growth in a cell viability assay.
HCC1143 = assay: cells; conditions: Homo sapiens;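 note: growth inhibition of human HCC1143 cells, read out with a cell viability assay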
Description: SANGER: Inhibition of human HCC1143 cell growth in a cell viability assay.

IPC-298 = assay: SANGER: Inhibition of human IPC-298 cell growth in a cell viability assay.
MDA-MB-468 = assay: cells; conditions: Homo sapiens
Description: SANGER: Inhibition of human MDA-MB-468 cell growth in a cell viability assay.

MES-SA = assay: cells; conditions: Homo sapiens;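 note: growth inhibition of human MES-SA cells, read out with a cell viability assay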
Description: SANGER: Inhibition of human MES-SA cell growth in a cell viability assay.

MFE-296 = assay: SANGER: Inhibition of human MFE-296 cell growth in a cell viability assay.
NCI-H1734 = assay: cells; conditions: Homo sapiens;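 note: growth inhibition of human NCI-H1734 cells, read out with a cell viability assay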
Description: SANGER: Inhibition of human NCI-H1734 cell growth in a cell viability assay.

NCI-H2227 = assay: cells; conditions: Homo sapiens;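 note: growth inhibition of the human cell line, read out with a cell viability assay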
Description: SANGER: Inhibition of human NCI-H2227 cell growth in a cell viability assay.

NCI-H838 = assay: cells; conditions: Homo sapiens;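 note: growth inhibition of human NCI-H838 cells, read out by a cell viability assay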
Description: SANGER: Inhibition of human NCI-H838 cell growth in a cell viability assay.

PLC-PRF-5 = assay: cells; conditions: Homo sapiens;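 note: growth inhibition of human PLC-PRF-5 cells, read out with a viability assay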
Description: SANGER: Inhibition of human PLC-PRF-5 cell growth in a cell viability assay.

RT-4 = assay: SANGER: Inhibition of human RT4 cell growth in a cell viability assay.
SK-CO-1 = assay: cells; conditions: Homo sapiens;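 note: growth inhibition of SK-CO-1 cells, determined by a viability readout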
Description: SANGER: Inhibition of human SK-CO-1 cell growth in a cell viability assay.

SNG-M = assay: cells; conditions: Homo sapiens
Description: SANGER: Inhibition of human SNG-M cell growth in a cell viability assay.

SNU-475 = assay: cells; conditions: Homo sapiens
Description: SANGER: Inhibition of human SNU-475 cell growth in a cell viability assay.

C-4-II = assay: SANGER: Inhibition of human C-4-II cell growth in a cell viability assay.
TT = assay: cells; conditions: Homo sapiens
Description: SANGER: Inhibition of human TT cell growth in a cell viability assay.

CCF-STTG1 = assay: cells; conditions: Homo sapiens;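 note: growth inhibition of human CCF-STTG1 cells, determined with a cell viability read-out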
Description: SANGER: Inhibition of human CCF-STTG1 cell growth in a cell viability assay.

COLO 205 = assay: cells; conditions: Homo sapiens
Description: SANGER: Inhibition of human COLO-205 cell growth in a cell viability assay.

ECC10 = assay: cells; conditions: Homo sapiens;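 note: growth inhibition of ECC10 cells, read out by a cell viability assay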
Description: SANGER: Inhibition of human ECC10 cell growth in a cell viability assay.

EPLC-272H = assay: cells; conditions: Homo sapiens
Description: SANGER: Inhibition of human EPLC-272H cell growth in a cell viability assay.

H-EMC-SS = assay: cells; conditions: Homo sapiens
Description: SANGER: Inhibition of human H-EMC-SS cell growth in a cell viability assay.

H9 = assay: cells; conditions: Homo sapiens
Description: SANGER: Inhibition of human H9 cell growth in a cell viability assay.

KNS-62 = assay: cells; conditions: Homo sapiens;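 note: inhibition of cell growth, read out with a cell viability assay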
Description: SANGER: Inhibition of human KNS-62 cell growth in a cell viability assay.

LU-135 = assay: cells; conditions: Homo sapiens
Description: SANGER: Inhibition of human LU-135 cell growth in a cell viability assay.

NBsusSR = assay: cells; conditions: Homo sapiens;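 note: growth inhibition of the human cell line, read out with a cell viability assay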
Description: SANGER: Inhibition of human NBsusSR cell growth in a cell viability assay.

NCI-H1048 = assay: cells; conditions: Homo sapiens;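 note: growth inhibition of human NCI-H1048 cells, read out with a cell viability assay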
Description: SANGER: Inhibition of human NCI-H1048 cell growth in a cell viability assay.

NCI-H1666 = assay: cells; conditions: Homo sapiens;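 note: growth inhibition of the cell line, read out with a cell viability assay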
Description: SANGER: Inhibition of human NCI-H1666 cell growth in a cell viability assay.

NCI-H2029 = assay: cells; conditions: Homo sapiens;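 note: Read-out is a viability assay on the cultured cells, and IC50 is the concentration that suppresses cell growth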
Description: SANGER: Inhibition of human NCI-H2029 cell growth in a cell viability assay.

OC-314 = assay: cells; conditions: Homo sapiens
Description: SANGER: Inhibition of human OC-314 cell growth in a cell viability assay.

RH-18 = assay: cells; conditions: Homo sapiens, Rh18;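 note: growth inhibition of human RH-18 cells, read out with a cell viability assay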
Description: SANGER: Inhibition of human RH-18 cell growth in a cell viability assay.

SW 1116 = assay: cells; conditions: Homo sapiens;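 note: growth inhibition of SW1116 cells, read out with a cell viability assay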
Description: SANGER: Inhibition of human SW1116 cell growth in a cell viability assay.

SW900 = assay: cells; conditions: Homo sapiens;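 note: IC50 is the concentration that inhibits SW900 cell growth, measured by a cell viability assay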
Description: SANGER: Inhibition of human SW900 cell growth in a cell viability assay.

A549 = assay: cells; conditions: Homo sapiens;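 note: growth inhibition of A549 cells, read out with a cell viability assay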
Description: SANGER: Inhibition of human A549 cell growth in a cell viability assay.

BT-549 = assay: cells; conditions: Homo sapiens
Description: SANGER: Inhibition of human BT-549 cell growth in a cell viability assay.

TGBC11TKB = assay: cells; conditions: Homo sapiens;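 note: growth inhibition of human TGBC11TKB cells, measured by a cell viability assay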
Description: SANGER: Inhibition of human TGBC11TKB cell growth in a cell viability assay.

TI-73 = assay: cells; conditions: Homo sapiens;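 note: cell viability assay measuring how much compounds suppress growth of the cultured cell line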
Description: SANGER: Inhibition of human TI-73 cell growth in a cell viability assay.

YH-13 = assay: cells; conditions: Homo sapiens;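 note: cell viability readout of growth suppression in the human YH-13 cell line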
Description: SANGER: Inhibition of human YH-13 cell growth in a cell viability assay.

ZR-75-30 = assay: cells; conditions: Homo sapiens;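 note: growth inhibition of ZR-75-30 cells, measured with a cell viability readout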
Description: SANGER: Inhibition of human ZR-75-30 cell growth in a cell viability assay.

CFPAC-1 = assay: cells; conditions: Homo sapiens;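 note: cell viability readout used to gauge suppression of CFPAC-1 cell proliferation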
Description: SANGER: Inhibition of human CFPAC-1 cell growth in a cell viability assay.

SMILES: CCNC(=O)c1noc(-c2cc(C(C)C)c(O)cc2O)c1-c1ccc(CN2CCOCC2)cc1 [LUMINESPIB]
- IC50 (Calu-1): 0.0733 µM
- IC50 (Caov-3 cell line): > 0.256 µM
- IC50 (DMS-53): 0.123 µM
- IC50 (EFE-184): 0.246 µM
- IC50 (EW-7): 0.00754 µM
- IC50 (HCC1143): > 0.256 µM
- IC50 (IPC-298): 0.0964 µM
- IC50 (MDA-MB-468): 0.0999 µM
- IC50 (MES-SA): 0.00452 µM
- IC50 (MFE-296): 0.0232 µM
- IC50 (NCI-H1734): 0.0323 µM
- IC50 (NCI-H2227): > 0.256 µM
- IC50 (NCI-H838): 0.237 µM
- IC50 (PLC-PRF-5): > 0.256 µM
- IC50 (RT-4): > 0.256 µM
- IC50 (SK-CO-1): 0.0799 µM
- IC50 (SNG-M): 0.00856 µM
- IC50 (SNU-475): > 0.256 µM
- IC50 (C-4-II): 0.122 µM
- IC50 (TT): > 0.256 µM
- IC50 (CCF-STTG1): 0.00297 µM
- IC50 (COLO 205): 0.0492 µM

SMILES: CO[C@@]12[C@H](COC(N)=O)C3=C(C(=O)C(C)=C(N)C3=O)N1C[C@@H]1N[C@@H]12 [MITOMYCIN]
- IC50 (Calu-1): 4.81 µM
- IC50 (Caov-3 cell line): 0.162 µM
- IC50 (DMS-53): 0.809 µM
- IC50 (EFE-184): 1.38 µM
- IC50 (EW-7): < 0.0625 µM
- IC50 (HCC1143): 1.07 µM
- IC50 (IPC-298): 1.23 µM
- IC50 (MDA-MB-468): 0.345 µM
- IC50 (MES-SA): 0.145 µM
- IC50 (MFE-296): 0.286 µM
- IC50 (NCI-H1734): 0.137 µM
- IC50 (NCI-H2227): 6.32 µM
- IC50 (NCI-H838): 1.23 µM
- IC50 (PLC-PRF-5): 4.19 µM
- IC50 (RT-4): 1.7 µM
- IC50 (SK-CO-1): 0.202 µM
- IC50 (SNG-M): 0.134 µM
- IC50 (SNU-475): 0.813 µM
- IC50 (C-4-II): 0.104 µM
- IC50 (TT): 3.68 µM
- IC50 (CCF-STTG1): 0.216 µM
- IC50 (COLO 205): < 0.0625 µM

SMILES: C/C=C(/C)C(=O)O[C@H]1C(C)=C2[C@H]([C@@H]1OC(=O)CCCCCCC)[C@@](C)(OC(C)=O)C[C@H](OC(=O)CCC)[C@@]1(O)[C@H]2OC(=O)[C@@]1(C)O [THAPSIGARGIN]
- IC50 (Calu-1): 0.0021 µM
- IC50 (Caov-3 cell line): 0.0372 µM
- IC50 (DMS-53): 0.38 µM
- IC50 (EFE-184): > 0.512 µM
- IC50 (EW-7): 0.00634 µM
- IC50 (HCC1143): 0.00207 µM
- IC50 (IPC-298): 0.00654 µM
- IC50 (MDA-MB-468): 0.00398 µM
- IC50 (MES-SA): < 0.002 µM
- IC50 (MFE-296): 0.00295 µM
- IC50 (NCI-H1734): 0.00148 µM
- IC50 (NCI-H2227): > 0.512 µM
- IC50 (NCI-H838): 0.0353 µM
- IC50 (PLC-PRF-5): 0.0918 µM
- IC50 (RT-4): 0.00374 µM
- IC50 (SK-CO-1): 0.017 µM
- IC50 (SNG-M): < 0.002 µM
- IC50 (SNU-475): > 0.512 µM
- IC50 (C-4-II): 0.0206 µM
- IC50 (TT): 0.217 µM
- IC50 (CCF-STTG1): 0.0673 µM
- IC50 (COLO 205): 0.00315 µM

SMILES: C[C@]1(c2nc3c(C(N)=O)cccc3[nH]2)CCCN1 [VELIPARIB]
- IC50 (ECC10): > 5 µM
- IC50 (EPLC-272H): > 5 µM
- IC50 (H-EMC-SS): > 5 µM
- IC50 (H9): > 5 µM
- IC50 (KNS-62): > 5 µM
- IC50 (LU-135): > 5 µM
- IC50 (NBsusSR): > 5 µM
- IC50 (NCI-H1048): > 5 µM
- IC50 (NCI-H1666): > 5 µM
- IC50 (NCI-H2029): > 5 µM
- IC50 (OC-314): > 5 µM
- IC50 (RH-18): > 5 µM
- IC50 (SW 1116): > 5 µM
- IC50 (SW900): > 5 µM
- IC50 (A549): > 5 µM
- IC50 (BT-549): > 5 µM
- IC50 (TGBC11TKB): > 5 µM
- IC50 (TI-73): > 5 µM
- IC50 (YH-13): > 5 µM
- IC50 (ZR-75-30): > 5 µM
- IC50 (CFPAC-1): > 5 µM
